Source: patent US10407388B2, “Thiourea derivatives as activators of RORα and pharmaceutical composition containing same” (SEOUL NATIONAL UNIVERSITY R & DB FOUNDATION, priority 2011, dated 2019)

Assays:
[1] = Chemical stability of JC1 compounds; assay type: physicochemical
CPT-1 = assay: Fatty acid oxidation gene CPT-1 in HepG2 cells, real-time RT-PCR; assay type: cell-based, human; settings: 100 μM, 24 hours; FIG. 8
Experimental: (§1) HepG2 cells (1×10^6 cells/well) were seeded on a 60-dish and cultured overnight in a DMEM containing 10% FBS. The HepG2 cells were maintained at 37° C. in a humidification thermostat containing 5% CO2 and 95% air. After culturing, the HepG2 cells were treated with JC1-38, JC1-40, and JC1-42 at a concentration of 100 μM for 24 hours. After treatment, effects thereof on transcriptional activity were analyzed by real-time reverse transcriptase-polymerase chain reaction (real-time RT-PCR) analysis. The PCR was performed using the following primers respectively specific to MCAD, ACO1, ACO2, HMGCS2, CPT-1, and ACS, which are involved in fatty acid oxidation: […]

LXRα = assay: Transcriptional activity of LXRα, LXRE-Luc reporter in HepG2 cells treated with T17; assay type: cell-based, human; settings: 1 μM, 10 μM, 20 μM, 50 μM, and 100 μM with 1 μM T17, 24 hours; FIG. 5a
Experimental: A human hepatoma cell line and HepG2 (ATCC HB 8065) were purchased from ATCC. HepG2 cells (1.2×10^5 cells/well) were seeded on a 24-well culture plate and cultured overnight in a DMEM containing 10% FBS. The HepG2 cells were maintained at 37° C. in a humidification thermostat containing 5% CO2 and 95% air. After culturing, the HepG2 cells were transformed with LXRE-Luc reporter (0.1 μg) using Welfect-EXTM Plus (WelGENE Inc., Korea). 24 hours after transformation, the HepG2 cells were treated with particular concentrations (1 μM, 10 μM, 20 μM, 50 μM, and 100 μM) of JC1-38, JC1-40, and JC1-42 and 1 μM T17 (T0901317), which is a ligand of LXRα, for 24 hours. Subsequently, cell lysates were collected, and luciferase activity was analyzed and determined using an analytical luminescence luminometer. The luciferase activity was standardized by β-gal activity to determine transcriptional activity, and data was attained as the mean and SD for two or three independent experimental results, and the results thereof are illustrated in FIG. 5a.

RORα = target: T1, RORα (Homo sapiens, UniProt P35398); assay: Transcriptional activity of RORα according to concentration, RORE-Luc reporter and Flag-RORα vector in CV-1 cells (Experimental Example 2); assay type: cell-based; settings: for transcriptional activity of RORα / activity of RORα at low concentrations: 1 μM; for transcriptional activity of RORα: 10 μM, 20 μM, 50 μM, and 100 μM, 24 hours, FIG. 4; for activity of RORα at low concentrations: 10 μM, and 20 μM; for effect of increasing the activity of RORα compared with melatonin: 50 μM to 100 μM, melatonin 100 μM
T1 construct: expressed in transfected cells; host or cells: CV-1 cells (ATCC CCL-70)
T1 sequence (P35398 1-523): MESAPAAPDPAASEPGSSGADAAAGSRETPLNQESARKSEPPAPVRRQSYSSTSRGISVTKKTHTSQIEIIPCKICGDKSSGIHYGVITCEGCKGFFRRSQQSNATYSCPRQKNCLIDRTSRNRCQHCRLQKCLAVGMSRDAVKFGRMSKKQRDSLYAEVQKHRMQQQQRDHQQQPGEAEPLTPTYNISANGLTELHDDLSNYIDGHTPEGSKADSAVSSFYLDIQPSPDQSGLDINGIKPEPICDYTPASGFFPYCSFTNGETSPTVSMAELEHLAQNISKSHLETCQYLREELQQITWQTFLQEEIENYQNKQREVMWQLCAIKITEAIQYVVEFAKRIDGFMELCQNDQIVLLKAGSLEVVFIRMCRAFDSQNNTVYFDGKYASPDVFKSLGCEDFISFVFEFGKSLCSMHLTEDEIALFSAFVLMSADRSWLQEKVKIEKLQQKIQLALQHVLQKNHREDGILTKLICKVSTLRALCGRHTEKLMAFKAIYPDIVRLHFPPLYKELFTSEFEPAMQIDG
Experimental: CV-1 cells (4×10^4 cells/well) were seeded on a 24-well culture plate and cultured overnight in a DMEM containing 10% FBS. The CV-1 cells were maintained at 37° C. in a humidification thermostat containing 5% CO2 and 95% air. After culturing, the CV-1 cells were transformed with RORE-Luc reporter (0.05 μg) and Flag-RORα vector (0.005 μg) using calcium phosphate. […] Subsequently, cell lysates were collected, and luciferase activity was analyzed and determined using an analytical luminescence luminometer. The luciferase activity was standardized by β-gal activity to determine transcriptional efficiency, and data was attained as the mean and SD for two or three independent experimental results, and the results thereof are illustrated in FIG. 4.

ACS = assay: Fatty acid oxidation gene ACS in HepG2 cells, real-time RT-PCR; assay type: cell-based, human; settings: 100 μM, 24 hours; FIG. 8
Experimental: as §1

SREBP-1 = assay: Transcriptional activity of SREBP-1, SRE-Luc reporter in HepG2 cells treated with T17; assay type: cell-based, human; settings: 50 μM with 1 μM T17, 24 hours; FIG. 5b
Experimental: In addition, HepG2 cells were cultured under the same conditions, and then the HepG2 cells were transformed with SRE-Luc reporter (0.1 μg) using Welfect-EXTM Plus (WelGENE Inc., Korea). 24 hours after transformation, the HepG2 cells were treated with each of the JC1-38, JC1-40, and JC1-42 compounds at a concentration of 50 μM and 1 μM T17 (T0901317) for 24 hours. Subsequently, cell lysates were collected, and luciferase activity was analyzed and determined using an analytical luminescence luminometer. The luciferase activity was standardized by β-gal activity to determine transcriptional efficiency, and data was attained as the mean and SD for three independent experimental results, and the results thereof are illustrated in FIG. 5b.

MTTP = assay: VLDL secretion gene MTTP in HepG2 cells, RT-PCR; assay type: cell-based, human; settings: 100 μM, 24 hours; FIG. 9b
Experimental: as §1, with “60-dish,” for “60-dish”, “RT-PCR” for “real-time reverse transcriptase-polymerase chain reaction (real-time RT-PCR)”, “CD36 (see FIG. 9a) involved in fatty acid uptake” for “MCAD, ACO1, ACO2, HMGCS2, CPT-1,”, “MTTP and ApoB100 (see FIG. 9b),” for “ACS,”, “the secretion of very low density lipoproteins:” for “fatty acid oxidation:”

ACO2 = assay: Fatty acid oxidation gene ACO2 in HepG2 cells, real-time RT-PCR; assay type: cell-based, human; settings: 100 μM, 24 hours; FIG. 8
Experimental: as §1

ACO1 = assay: Fatty acid oxidation gene ACO1 in HepG2 cells, real-time RT-PCR; assay type: cell-based, human; settings: 100 μM, 24 hours; FIG. 8
Experimental: as §1

MCAD = assay: Fatty acid oxidation gene MCAD in HepG2 cells, real-time RT-PCR; assay type: cell-based, human; settings: 100 μM, 24 hours; FIG. 8
Experimental: as §1

SMILES	chemical stability [1]	transcriptional activity of CPT-1 (CPT-1)	transcriptional activity of LXRα, which had been increased by T17 (LXRα)	transcriptional activity of RORα (RORα)	activity of RORα at low concentrations (RORα)	effect of increasing the activity of RORα compared with melatonin (RORα)	transcriptional activity of ACS (ACS)	transcriptional activity of SREBP-1, which had been increased by T17 (SREBP-1)	transcriptional activity of MTTP (MTTP)	transcriptional activity of ACO2 (ACO2)	transcriptional activity of ACO1 (ACO1)	transcriptional activity of MCAD (MCAD)
CNC(=S)NCc1ccccc1-c1ccncc1 [Compound 38, 1-methyl-3-(4-pyridinyl-2-benzyl)-thiourea]	highly chemically stable	increased	decreased in a manner dependent on the concentration	increased in a manner dependent on the concentration	insignificantly increased	comparable to or surpassed the effect provided by melatonin	increased	decreased	increased	increased	increased	increased
CNC(=S)NCc1ccc(OCc2ccccc2)cc1 [Compound 40, 1-(4-benzyloxy-benzyl)-3-methyl-thiourea]	highly chemically stable	increased	decreased in a manner dependent on the concentration	increased in a manner dependent on the concentration	insignificantly increased	comparable to or surpassed the effect provided by melatonin	increased	decreased	increased	increased	increased	increased
CNC(=S)NCc1ccc(Oc2ccccc2)cc1 [Compound 42, 1-(4-phenoxy-benzyl)-3-methyl-thiourea]	highly chemically stable	increased	decreased in a manner dependent on the concentration	increased in a manner dependent on the concentration	insignificantly increased	comparable to or surpassed the effect provided by melatonin	increased	decreased	increased	increased	increased	increased
